Target: MAPK14 (human) (UniProt Q16539)
Assay: Inhibition of MAPK14 Kinase Activity

Chain of MAPK14 (human) (Q16539 whole entry, looked up): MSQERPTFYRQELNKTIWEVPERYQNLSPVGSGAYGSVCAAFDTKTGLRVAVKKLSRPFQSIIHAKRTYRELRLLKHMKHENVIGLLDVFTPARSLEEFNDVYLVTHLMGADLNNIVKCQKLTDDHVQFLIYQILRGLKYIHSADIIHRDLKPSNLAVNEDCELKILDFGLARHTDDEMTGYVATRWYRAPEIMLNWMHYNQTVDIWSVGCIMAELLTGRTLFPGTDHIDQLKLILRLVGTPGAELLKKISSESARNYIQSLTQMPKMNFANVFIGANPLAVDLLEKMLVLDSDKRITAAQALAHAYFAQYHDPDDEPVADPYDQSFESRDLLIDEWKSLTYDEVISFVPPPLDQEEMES

IC50, ≤ 10 µM:
O=C1NCC(Cc2ccccc2F)CN1c1c(Cl)cccc1Cl (stereo not drawn)
O=C1CCC(Cc2ccc(F)cc2F)CN1C1C(Cl)CC(O)CC1Cl (stereo not drawn)
CNC1CCC(Cl)C(N2CC(Oc3ccc(F)cc3F)CCC2=O)C1Cl (stereo not drawn)
CN(C)NC(=O)CNc1cc(Cl)c(N2CC(Cc3ccc(F)cc3F)CCC2=O)c(Cl)c1 (stereo not drawn)
CN1CCN(c2cc(Cl)c(N3CC(Cc4ccc(F)cc4F)CCC3=O)c(Cl)c2)CC1 (stereo not drawn)
Cc1cc(C)cc(CC2CSC(=O)N(c3c(Cl)cccc3Cl)C2)c1 (stereo not drawn)
Cc1cc(C)cc(CC2CCC(=O)N(c3c(Cl)cccc3Cl)C2)c1 (stereo not drawn)
CNC(=O)CCc1cc(Cl)c(N2CC(Cc3ccc(F)cc3F)CCC2=O)c(Cl)c1 (stereo not drawn)
CN(C)CCNC(=O)c1cc(Cl)c(N2CC(Cc3ccc(F)cc3F)CCC2=O)c(Cl)c1 (stereo not drawn)
CC(C)(C)OC(=O)N(Cc1ccccn1)c1cc(Cl)c(N2CC(Cc3ccc(F)cc3F)CCC2=O)c(Cl)c1 (stereo not drawn)
CN1CC(Cc2ccc(F)cc2F)CN(c2c(Cl)cccc2Cl)C1=O (stereo not drawn)
CN(C)CCN(C(=O)OC(C)(C)C)c1cc(Cl)c(N2CC(Cc3ccc(F)cc3F)CCC2=O)c(Cl)c1 (stereo not drawn)
CNc1ncc(Cl)c(N2CC(Cc3ccc(F)cc3F)CCC2=O)c1Cl (stereo not drawn)
O=C1CCC(Oc2ccc(F)cc2F)CN1c1c(Cl)cc(CO)cc1Cl (stereo not drawn)
O=C1CCC(Sc2ccc(F)cc2)CN1c1c(Cl)cncc1Cl (stereo not drawn)
O=C1NCC(Cc2ccc(F)cc2F)CN1c1c(Cl)cc(O)cc1Cl (stereo not drawn)
O=C1CCC(Oc2ccccc2F)CN1c1c(Cl)csc1Cl (stereo not drawn)
CN1CC(Cc2ccc(Cl)cc2Cl)CN(c2c(Cl)cccc2Cl)C1=O (stereo not drawn)
O=C1COC(Cc2cc(F)cc(F)c2)CN1c1c(Cl)cccc1Cl (stereo not drawn)
O=C1CCC(Sc2ccc(F)cc2F)CN1c1c(Cl)ccc(O)c1Cl (stereo not drawn)
O=C1SCC(Cc2ccccc2)CN1c1c(Cl)cccc1Cl (stereo not drawn)
Cc1ccc(SC2CCC(=O)N(c3c(Cl)ccnc3Cl)C2)cc1 (stereo not drawn)
Nc1sc(Cl)c(N2CC(Cc3ccc(F)cc3F)CCC2=O)c1Cl (stereo not drawn)
O=C1CCC(Sc2cc(Cl)cc(Cl)c2)CN1c1c(Cl)ccnc1Cl (stereo not drawn)
O=C1CCC(Cc2cccc3ccccc23)CN1c1c(Cl)cncc1Cl (stereo not drawn)
O=C1CCC(Oc2cccc3ccccc23)CN1C1C(Cl)CCCC1Cl (stereo not drawn)
Nc1cc(Cl)c(N2CC(Cc3ccccc3)CCC2=O)c(Cl)c1 (stereo not drawn)
Nc1ccc(Cl)c(N2CC(Cc3ccc(F)cc3F)CNC2=O)c1Cl (stereo not drawn)
CS(=O)(=O)Nc1ccc(Cl)c(N2CC(Cc3ccc(F)cc3F)CCC2=O)c1 (stereo not drawn)
O=C1CCC(Sc2ccccc2Cl)CN1c1c(Cl)csc1Cl (stereo not drawn)
O=C1CCC(Cc2ccc(F)cc2F)CN1c1c(Cl)cc(N2C(=O)CCCC2=O)cc1Cl (stereo not drawn)
COc1ccccc1CC1CCC(=O)N(c2c(Cl)csc2Cl)C1 (stereo not drawn)
Cc1ccccc1CC1CCC(=O)N(c2c(Cl)ccnc2Cl)C1 (stereo not drawn)
Cc1ccc(OC2CCC(=O)N(c3c(Cl)ccnc3Cl)C2)cc1 (stereo not drawn)
O=C1SCC(Cc2cccc3ccccc23)CN1c1c(Cl)cccc1Cl (stereo not drawn)
Cc1cc(C(=O)NCCCN(C)C)cc(C)c1N1CC(Cc2ccc(F)cc2F)CCC1=O (stereo not drawn)
Cc1ccccc1OC1CCC(=O)N(C2C(Cl)CCCC2Cl)C1 (stereo not drawn)
COc1ccc(SC2CCC(=O)N(c3c(Cl)cccc3Cl)C2)cc1 (stereo not drawn)
O=C(Cc1ccccc1)Nc1ccc(Cl)c(N2CC(Cc3ccc(F)cc3F)CCC2=O)c1Cl (stereo not drawn)
O=C1CCC(Cc2cc(Cl)cc(Cl)c2)CN1c1c(Cl)ccnc1Cl (stereo not drawn)
COc1ccccc1SC1CCC(=O)N(c2c(Cl)ccnc2Cl)C1 (stereo not drawn)
O=C1CCC(Oc2ccc(F)cc2F)CN1C1C(Cl)CCCC1Cl (stereo not drawn)
COc1ccccc1SC1CCC(=O)N(c2c(Cl)cncc2Cl)C1 (stereo not drawn)
O=C(NCc1ccccc1CC1CCC(=O)N(c2c(Cl)cccc2Cl)C1)Nc1cccc(C(F)(F)F)c1 (stereo not drawn)
O=C1CCC(CCc2ccccc2)CN1c1c(Cl)cccc1Cl (stereo not drawn)
CNc1sc(Cl)c(N2CC(Sc3ccc(F)cc3F)CCC2=O)c1Cl (stereo not drawn)
CN1CCN(C(=O)CNc2cc(Cl)c(N3CC(Cc4ccc(F)cc4F)CCC3=O)c(Cl)c2)CC1 (stereo not drawn)
COc1ccccc1OC1CCC(=O)N(C2C(Cl)CCCC2Cl)C1 (stereo not drawn)
Cc1ccc(SC2CCC(=O)N(c3c(Cl)cncc3Cl)C2)cc1 (stereo not drawn)
O=C(O)CNc1ccc(Cl)c(N2CC(Cc3ccc(F)cc3F)CCC2=O)c1 (stereo not drawn)
CNc1sc(Cl)c(N2CC(Oc3ccc(F)cc3F)CCC2=O)c1Cl (stereo not drawn)
O=C(Cc1ccccc1)NC1CCC(Cl)C(N2CC(Cc3ccc(F)cc3F)CCC2=O)C1Cl (stereo not drawn)
O=C1CCC(Cc2ccc(C(F)(F)F)cc2)CN1c1c(Cl)cccc1Cl (stereo not drawn)
O=C1CCC(Cc2ccc(F)cc2F)CN1c1c(Cl)cc(O)cc1Cl (stereo not drawn)
O=C1CCC(Cc2ccc(F)cc2F)CN1c1c(Cl)cc(CO)cc1Cl (stereo not drawn)
O=C1CC/C(=C\c2ccc(F)cc2F)CN1c1c(Cl)cccc1Cl
CN1CC(Cc2ccc(F)cc2F)CN(c2c(Cl)cc(NC(=O)Cc3ccccc3)cc2Cl)C1=O (stereo not drawn)
Cc1cc(NC(=O)OC(C)(C)C)cc(C)c1N1CC(Cc2ccc(F)cc2F)CCC1=O (stereo not drawn)
Cc1ccccc1CC1CCC(=O)N(c2c(Cl)cncc2Cl)C1 (stereo not drawn)
Cc1ccc(CC2CCC(=O)N(c3c(Cl)ccnc3Cl)C2)c(C)c1 (stereo not drawn)
O=C1COC(Cc2ccc(Cl)cc2Cl)CN1c1c(Cl)cccc1Cl (stereo not drawn)
CC(=O)Nc1cc(Cl)c(N2CC(Oc3ccc(F)cc3F)CCC2=O)c(Cl)n1 (stereo not drawn)
O=C1CCC(Oc2ccccc2)CN1c1c(Cl)cccc1Cl (stereo not drawn)
COc1ccc(CC2CN(c3c(Cl)cccc3Cl)C(=O)CO2)cc1 (stereo not drawn)
O=C1CCC(Sc2ccccc2)CN1C1C(Cl)CCCC1Cl (stereo not drawn)
CC1(C)NC(=O)N(CCNc2cc(Cl)c(N3CC(Cc4ccc(F)cc4F)CCC3=O)c(Cl)c2)C1=O (stereo not drawn)
O=C1CCC(Cc2ccc(F)cc2F)CN1c1c(Cl)ncc(CO)c1Cl (stereo not drawn)
Cc1cc(C(=O)NCCCC(=O)O)cc(C)c1N1CC(Cc2ccc(F)cc2F)CCC1=O (stereo not drawn)
NCCCc1cc(Cl)c(N2CC(Cc3ccc(F)cc3F)CCC2=O)c(Cl)c1 (stereo not drawn)
O=C1CCC(Cc2ccc(F)cc2F)CN1c1c(Cl)ccc(CO)c1Cl (stereo not drawn)
O=C1CCC(Oc2cccc3ccccc23)CN1c1c(Cl)cccc1Cl (stereo not drawn)
Cc1ccc(OC2CCC(=O)N(c3c(Cl)cncc3Cl)C2)c(C)c1 (stereo not drawn)
CC(=O)NC1CCC(Cl)C(N2CC(Sc3ccc(F)cc3F)CCC2=O)C1Cl (stereo not drawn)
O=C1COC(Cc2ccccc2)CN1c1c(Cl)cccc1Cl (stereo not drawn)
O=C1CCC(Cc2ccc(F)cc2F)CN1C1CCCCC1 (stereo not drawn)
O=C1CCC(C(O)c2ccc(F)cc2F)CN1c1c(Cl)cccc1Cl (stereo not drawn)
O=C1COC(Cc2ccc(F)cc2F)CN1c1c(Cl)ccc(O)c1Cl (stereo not drawn)
CNc1ccc(Cl)c(N2CC(Cc3ccc(F)cc3F)OCC2=O)c1Cl (stereo not drawn)
COCCOCOc1ccccc1CC1CCC(=O)N(c2c(C)cccc2C)C1 (stereo not drawn)
C[C@@H]1C[C@H](Cc2ccc(F)cc2F)CN(c2c(Cl)cc(NC(=O)OC(C)(C)C)cc2Cl)C1=O
Cc1ccc(CC2CCC(=O)N(c3c(Cl)cncc3Cl)C2)cc1 (stereo not drawn)
Cc1cc(/C=C/CCN(C)C)cc(C)c1N1CC(Cc2ccc(F)cc2F)CCC1=O (stereo not drawn)
Nc1cnc(Cl)c(N2CC(Cc3ccc(F)cc3F)CCC2=O)c1Cl (stereo not drawn)
O=C1CCC(Cc2ccc(Cl)cc2Cl)CN1c1c(Cl)ccnc1Cl (stereo not drawn)
O=C(O)CCCC(=O)Nc1cc(Cl)c(N2CC(Cc3ccc(F)cc3F)CCC2=O)c(Cl)c1 (stereo not drawn)
CCNC(=O)Nc1cc(Cl)c(N2CC(Cc3ccc(F)cc3F)CCC2=O)c(Cl)c1 (stereo not drawn)
O=C1CCC(Sc2ccc3ccccc3c2)CN1c1c(Cl)cncc1Cl (stereo not drawn)
O=C1CC[C@@H](Cc2ccc(F)cc2F)CN1c1c(Cl)cccc1Cl
O=C1CCC(Sc2ccc(F)cc2F)CN1c1c(Cl)cccc1Cl (stereo not drawn)
CCOC(=O)CNc1cc(Cl)c(N2CC(Cc3ccc(F)cc3F)CCC2=O)c(Cl)c1 (stereo not drawn)
N#CCCc1cc(Cl)c(N2CC(Cc3ccc(F)cc3F)CCC2=O)c(Cl)c1 (stereo not drawn)
O=C1CCC(Sc2cccc3ccccc23)CN1C1C(Cl)CCCC1Cl (stereo not drawn)
O=C1CCC(Oc2ccc(F)cc2F)CN1c1c(Cl)ccnc1Cl (stereo not drawn)
Cn1nc(C(C)(C)C)cc1NC(=O)CCc1ccccc1CC1CCC(=O)N(c2c(Cl)cccc2Cl)C1 (stereo not drawn)
O=C1NCC(Cc2ccccc2)CN1c1c(Cl)cccc1Cl (stereo not drawn)
O=C1CCC(Cc2ccc([N+](=O)[O-])cc2)CN1c1c(Cl)cccc1Cl (stereo not drawn)
O=C1CCC(Cc2cc(F)cc(F)c2)CN1c1c(Cl)cncc1Cl (stereo not drawn)
O=C1CCC(Cc2ccc(F)cc2F)CN1c1nccs1 (stereo not drawn)

From the Kinase Knowledgebase extract (Sharma et al. 2016)
